Test results reported in patent US20230233701A1 (priority 2020, published 2023).

Tests used:
[1] = tested on: 2D2 CD4 T cells; experiment: 2D2 CD4 T-cell adoptive transfer and challenge; details: amount equimolar to the administered […]-MOG35-55 adduct
[2] = tested on: OVA protein and OB1 peptide; details: three consecutive injections, C57BL/6J

In the case of “MOG35-55: amino acids 35-55 of MOG, MEVGWYRSPFSRVVHLYRNGK (SEQ ID NO: 49) (UniProt Q61885 63-83, looked up, fragment)”, the “division of 2D2 T cells” value [1] was no more than 5%.

With “OVA protein: free OVA (ovalbumin) protein, equimolar amounts” the “IgG antibody responses against OVA protein or OB1 peptide” value [2] was “readily produced such antibodies”.
